Measured values reported in publication PMC9572513, “Novel Unsymmetric 3,5-Bis(benzylidene)-4-piperidones That Display Tumor-Selective Toxicity” (Molecules, 2022).
Counter-ions that a name gives are not always drawn. Like-named read-outs stand apart in the source and are kept apart here.

Experiments:
[1] = test system: HCT116 colon cancer cells; assay: Cytotoxicity against HCT116 colon cancer cells; format: cell-based, human; conditions: for IC50: 48 h; for HCT116 SI (selectivity index): IC50 CRL1790 / IC50 HCT116
Description: (§1) The culture medium was supplemented with 10% heat-inactivated fetal bovine serum (FBS) and 1% penicillin–streptomycin antibiotics. The time of the bioassays was 48 h. The determinations were undertaken in triplicate on three different occasions.

[2] = test system: HT29 colon cancer cells; assay: Cytotoxicity against HT29 colon cancer cells; format: cell-based, human; conditions: for IC50: 48 h; for HT29 SI (selectivity index): IC50 CRL1790 / IC50 HT29
Description: as §1

[3] = test system: CRL1790 non-malignant colon cells; assay: Cytotoxicity against CRL1790 non-malignant colon cells; format: cell-based; conditions: Homo sapiens, 48 h
Description: as §1

[4] = test system: HCT116 and HT29 colon cancer cells; assay: Average over HCT116 and HT29 colon cancer cells; format: cell-based, human; conditions: for IC50: Homo sapiens, average of HCT116 and HT29, unit printed only for the single cell-line columns; for Average SI: average of SI for HCT116 and HT29; for PSE (potency-selectivity expression): reciprocal of average IC50 x average SI x 100, colon cells
Description: as §1

[5] = test system: Ca9-22 squamous cell carcinoma cells; assay: MTT cytotoxicity against Ca9-22 squamous cell carcinoma; format: cell-based, human; conditions: for CC50: Homo sapiens, Ca9-22, 48 h, MTT, read-out: Ca9-22 CC50; for Ca9-22 SI: average CC50 HGF/HPLF/HPC divided by CC50 Ca9-22
Description: (§2) The method for evaluating 2a–f and 3a–e against human oral squamous cell carcinoma (OSCC) cell lines (Ca9-22, HSC-2, HSC-3, HSC-4) and human non-malignant oral cells [human gingival fibroblast (HGF), human periodontal ligament fibroblast (HPLF), and human pulp cell (HPC)] have been reported previously, except the length of time of this bioassay was extended from 24 h to 48 h. In brief, different quantities of the compounds were incubated with the cells in Dulbecco’s modified eagle medium (DMEM), which was supplemented with 10% FBS and antibiotics. The cell viability was determined by the 3-(4,5-dimethylthiazol-2-yl)-2,5-diphenyl-2H-tetrazolium bromide (MTT) method as summarized previously (Figure 4).

[6] = test system: HSC-2 squamous cell carcinoma cells; assay: MTT cytotoxicity against HSC-2 squamous cell carcinoma; format: cell-based, human; conditions: for CC50: Homo sapiens, HSC-2, 48 h, MTT, read-out: HSC-2 CC50; for HSC-2 SI: average CC50 HGF/HPLF/HPC divided by CC50 HSC-2
Description: as §2

[7] = test system: HSC-3 squamous cell carcinoma cells; assay: MTT cytotoxicity against HSC-3 squamous cell carcinoma; format: cell-based, human; conditions: for CC50: Homo sapiens, HSC-3, 48 h, MTT, read-out: HSC-3 CC50; for HSC-3 SI: average CC50 HGF/HPLF/HPC divided by CC50 HSC-3
Description: as §2

[8] = test system: HSC-4 squamous cell carcinoma cells; assay: MTT cytotoxicity against HSC-4 squamous cell carcinoma; format: cell-based, human; conditions: for CC50: Homo sapiens, HSC-4, 48 h, MTT, read-out: HSC-4 CC50; for HSC-4 SI: average CC50 HGF/HPLF/HPC divided by CC50 HSC-4
Description: as §2

[9] = test system: Ca9-22, HSC-2, HSC-3, and HSC-4 squamous cell carcinoma cell lines; assay: Average over Ca9-22, HSC-2, HSC-3 and HSC-4 OSCC cell lines; format: cell-based, human; conditions: for CC50: average of four OSCC cell lines, read-out: Average CC50; for Average SI: average of SI for four OSCC cell lines
Description: as §2

[10] = MTT cytotoxicity against human gingival fibroblast (HGF); format: cell-based; conditions: human, human gingival fibroblasts (HGF), non-malignant oral cells
Description: as §2

[11] = MTT cytotoxicity against human periodontal ligament fibroblast (HPLF); format: cell-based; conditions: human, human periodontal ligament fibroblasts (HPLF), non-malignant oral cells
Description: as §2

[12] = MTT cytotoxicity against human pulp cell (HPC); format: cell-based; conditions: human, human pulp cells (HPC), non-malignant oral cells
Description: as §2

[13] = Average over HGF, HPLF and HPC non-malignant oral cells; format: cell-based, human; conditions: human, HPLF and HPC non-malignant oral cells (average), average of HGF
Description: as §2

[14] = test system: CEM cells; assay: Differential DNA staining (DNS) cytotoxicity assay, CEM cells; format: cell-based; conditions: Homo sapiens, CCRF-CEM
Description: (§3) The method used for generating the data of human acute lymphocytic leukemia (CEM) and human acute promyelocytic leukemia (HL-60) cells in Table 4 has been described previously. In brief, the cells were cultured in media supplemented with 10% FBS and antibiotics. […] The CC50 values of the compounds listed in Table 4 were obtained by linear interpolation equations [28, 29].

[15] = test system: HL-60 cells; assay: Differential DNA staining (DNS) cytotoxicity assay, HL-60 cells; format: cell-based; conditions: Homo sapiens
Description: as §3

[16] = 24 h, read-out: CC50 CEM Cells 24 h
[17] = 48 h, read-out: CC50 CEM Cells 48 h
[18] = HL-60, 24 h, read-out: CC50 HL-60 Cells 24 h
[19] = HL-60, 48 h, read-out: CC50 HL-60 Cells 48 h

| SMILES | HCT116 SI (selectivity index) [1] | HT29 SI (selectivity index) [2] | IC50 [3] [µM] | IC50 [4] [µM] | Average SI [4] | PSE (potency-selectivity expression) [4] | CC50 [5] [µM] | Ca9-22 SI [5] | CC50 [6] [µM] | HSC-2 SI [6] | CC50 [7] [µM] | HSC-3 SI [7] | CC50 [8] [µM] | HSC-4 SI [8] | CC50 ([9]; Homo sapiens) [µM] | CC50 at 48 h [10] [µM] | CC50 at 48 h [11] [µM] | CC50 at 48 h [12] [µM] | CC50 at 48 h [13] [µM] | CC50 [14, 16] [µM] | further results |
| --- | --- | --- | --- | --- | --- | --- | --- | --- | --- | --- | --- | --- | --- | --- | --- | --- | --- | --- | --- | --- | --- |
| COc1ccc(/C=C2\CNC/C(=C\c3ccc(O)c(CN4CCCC4)c3)C2=O)cc1OC [Compound 2c, 3-[3-(1-Pyrrolidinylmethyl)-4-hydroxybenzylidene]-5-(3,4-dimethoxybenzylidene)-4-piperidone dihydrochloride] | 7.67 | 16.8 | 26.4 ± 0.28 | 2.51 | 12.2 | 486 | 8.2 | 6.54 | 14 | 3.83 | 11.7 | 4.58 | 14.1 | 3.80 | 12 | 68.6 | 48.9 | 43.3 | 53.6 | > 10 | IC50 ([1]; Homo sapiens, HCT-116, 48 h): 3.44 ± 0.42 µM; IC50 ([2]; Homo sapiens, HT-29, 48 h): 1.57 ± 0.54 µM; Average SI [9]: 4.69; CC50 [14, 17]: 7.92 ± 0.98 µM; CC50 [15, 18]: > 10 µM; CC50 [15, 19]: > 10 µM |
| COc1ccc(/C=C2\CNC/C(=C\c3ccc(O)c(CN4CCN(C)CC4)c3)C2=O)cc1OC [Compound 2f, 3-[3-(4-Methyl-1-piperazinylmethyl)-4-hydroxybenzylidene]-5-(3,4-dimethoxybenzylidene)-4-piperidone trihydrochloride] | 18.7 | 16.7 | 12.7 ± 0.31 | 0.72 | 17.7 | 2458 | 1.94 | 8.81 | 2.8 | 6.11 | 2.47 | 6.92 | 2.73 | 6.26 | 2.49 | 33.1 | 12 | 6.1 | 17.1 | 8.91 ± 1.32 | IC50 [1]: 0.68 ± 0.31 µM; IC50 ([1]; Homo sapiens, HCT-116, 48 h): < 1 µM; IC50 [2]: 0.76 ± 0.3 µM; IC50 ([2]; Homo sapiens, HT-29, 48 h): < 1 µM; Average SI [9]: 7.03; CC50 [14, 17]: 2.89 ± 0.2 µM; CC50 [15, 18]: 3.75 ± 1.07 µM; CC50 [15, 19]: 2.73 ± 0.57 µM |
| CN1CCN(Cc2cc(/C=C3\CNC/C(=C\c4ccc(F)cc4)C3=O)ccc2O)CC1 [Compound 3b] | 45.0 | 48.5 | 12.6 ± 0.24 | 0.27 | 46.8 | 17,333 | 0.55 | 18.4 | 0.91 | 11.1 | 0.95 | 10.6 | 1.14 | 8.86 | < 1 | 18.5 | 7.4 | 4.3 | 10.1 | 3.15 ± 1.29 | CC50 [9]: 0.89 µM; PSE (potency-selectivity expression) ([9]; reciprocal of average CC50 (OSCC) x average SI x 100): > 1000; CC50 [14, 17]: 0.4 ± 0.03 µM; CC50 [15, 18]: 5.9 ± 0.76 µM; CC50 [15, 19]: 2.65 ± 0.43 µM |
